Assay results reported in ChEMBL document CHEMBL4190315, “Novel cinnamamide-dibenzylamine hybrids: Potent neurogenic agents with antioxidant, cholinergic, and neuroprotective properties as innovative drugs for Alzheimer's disease” (Eur J Med Chem, 2017).
Active and inactive are the calls of the source. No cut-off for these calls is given here.

Experiments:
Acetylcholinesterase [1] = molecular target: Acetylcholinesterase (Electrophorus electricus, UniProt O42275); experiment: Inhibition of electric eel AChE using acetylthiocholine iodide as substrate preincubated for 5 mins followed by substrate addition measured up to 180 secs by spectrophotometric analysis
Chain of Acetylcholinesterase (Electrophorus electricus, UniProt O42275) (O42275 whole entry): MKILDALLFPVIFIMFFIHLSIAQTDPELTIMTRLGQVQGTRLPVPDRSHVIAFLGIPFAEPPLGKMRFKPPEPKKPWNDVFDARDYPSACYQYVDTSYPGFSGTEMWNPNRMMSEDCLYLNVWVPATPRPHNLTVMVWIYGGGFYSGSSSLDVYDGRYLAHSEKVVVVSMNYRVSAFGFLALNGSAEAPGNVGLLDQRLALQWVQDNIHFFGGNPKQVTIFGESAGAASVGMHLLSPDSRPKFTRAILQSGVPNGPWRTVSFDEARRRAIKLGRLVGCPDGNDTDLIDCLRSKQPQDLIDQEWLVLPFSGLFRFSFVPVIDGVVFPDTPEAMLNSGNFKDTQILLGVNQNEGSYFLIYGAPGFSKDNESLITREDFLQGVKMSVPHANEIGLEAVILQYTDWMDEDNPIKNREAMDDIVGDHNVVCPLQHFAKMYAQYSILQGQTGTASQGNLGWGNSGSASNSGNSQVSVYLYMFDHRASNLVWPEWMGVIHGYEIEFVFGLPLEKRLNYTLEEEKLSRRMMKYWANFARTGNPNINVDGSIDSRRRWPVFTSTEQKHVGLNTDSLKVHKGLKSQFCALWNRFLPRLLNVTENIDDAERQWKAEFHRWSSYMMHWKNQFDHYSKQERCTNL

Cholinesterase [2] = molecular target: Cholinesterase (Equus caballus, UniProt P81908); experiment: Inhibition of equine serum BChE using S-butyrylthiocholine iodide as substrate preincubated for 5 mins followed by substrate addition measured up to 180 secs by spectrophotometric analysis
Chain of Cholinesterase (Equus caballus, UniProt P81908) (P81908 whole entry): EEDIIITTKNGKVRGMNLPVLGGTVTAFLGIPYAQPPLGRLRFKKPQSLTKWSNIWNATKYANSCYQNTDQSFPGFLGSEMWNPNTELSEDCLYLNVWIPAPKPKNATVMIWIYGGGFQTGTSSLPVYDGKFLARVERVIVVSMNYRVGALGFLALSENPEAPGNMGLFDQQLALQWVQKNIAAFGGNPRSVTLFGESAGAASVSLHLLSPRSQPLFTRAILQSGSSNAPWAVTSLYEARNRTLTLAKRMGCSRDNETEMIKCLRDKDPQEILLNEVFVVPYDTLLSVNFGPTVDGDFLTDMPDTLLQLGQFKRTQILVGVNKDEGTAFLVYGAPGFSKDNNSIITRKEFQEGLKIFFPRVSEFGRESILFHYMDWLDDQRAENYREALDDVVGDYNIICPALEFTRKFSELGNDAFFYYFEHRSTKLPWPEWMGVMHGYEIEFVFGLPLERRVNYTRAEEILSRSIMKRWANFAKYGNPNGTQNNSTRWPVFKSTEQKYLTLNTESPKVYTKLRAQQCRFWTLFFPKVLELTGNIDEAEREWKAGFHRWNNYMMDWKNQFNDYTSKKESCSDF

[3] = Selectivity index, ratio of IC50 for equine serum BChE to IC50 for electric eel AChE
Acetylcholinesterase [4] = molecular target: T1, Acetylcholinesterase (Homo sapiens, UniProt P22303); experiment: Inhibition of human erythrocytic AChE using acetylthiocholine iodide as substrate preincubated for 5 mins followed by substrate addition measured up to 180 secs by spectrophotometric analysis
T1 sequence (P22303 whole entry): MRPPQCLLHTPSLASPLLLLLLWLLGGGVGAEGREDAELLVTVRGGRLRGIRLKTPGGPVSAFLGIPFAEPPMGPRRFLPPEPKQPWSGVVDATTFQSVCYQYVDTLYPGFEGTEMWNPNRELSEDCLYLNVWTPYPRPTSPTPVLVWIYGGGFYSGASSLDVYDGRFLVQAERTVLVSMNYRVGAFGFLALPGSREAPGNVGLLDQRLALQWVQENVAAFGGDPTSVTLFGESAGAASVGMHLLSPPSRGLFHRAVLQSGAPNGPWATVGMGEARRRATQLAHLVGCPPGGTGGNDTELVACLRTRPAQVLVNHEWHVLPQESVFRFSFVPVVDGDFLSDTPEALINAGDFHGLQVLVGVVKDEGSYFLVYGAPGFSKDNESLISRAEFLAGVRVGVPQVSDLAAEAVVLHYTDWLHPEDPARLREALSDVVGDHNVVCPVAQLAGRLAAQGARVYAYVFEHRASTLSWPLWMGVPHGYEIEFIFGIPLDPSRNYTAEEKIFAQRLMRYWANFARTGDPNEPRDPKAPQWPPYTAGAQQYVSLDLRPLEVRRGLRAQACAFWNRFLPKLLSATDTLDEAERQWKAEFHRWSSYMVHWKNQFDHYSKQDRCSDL

Cholinesterase [5] = molecular target: Cholinesterase (Homo sapiens, UniProt P06276); experiment: Inhibition of human serum BChE using S-butyrylthiocholine iodide as substrate preincubated for 5 mins followed by substrate addition measured up to 180 secs by spectrophotometric analysis
Chain of Cholinesterase (Homo sapiens, UniProt P06276) (P06276 whole entry): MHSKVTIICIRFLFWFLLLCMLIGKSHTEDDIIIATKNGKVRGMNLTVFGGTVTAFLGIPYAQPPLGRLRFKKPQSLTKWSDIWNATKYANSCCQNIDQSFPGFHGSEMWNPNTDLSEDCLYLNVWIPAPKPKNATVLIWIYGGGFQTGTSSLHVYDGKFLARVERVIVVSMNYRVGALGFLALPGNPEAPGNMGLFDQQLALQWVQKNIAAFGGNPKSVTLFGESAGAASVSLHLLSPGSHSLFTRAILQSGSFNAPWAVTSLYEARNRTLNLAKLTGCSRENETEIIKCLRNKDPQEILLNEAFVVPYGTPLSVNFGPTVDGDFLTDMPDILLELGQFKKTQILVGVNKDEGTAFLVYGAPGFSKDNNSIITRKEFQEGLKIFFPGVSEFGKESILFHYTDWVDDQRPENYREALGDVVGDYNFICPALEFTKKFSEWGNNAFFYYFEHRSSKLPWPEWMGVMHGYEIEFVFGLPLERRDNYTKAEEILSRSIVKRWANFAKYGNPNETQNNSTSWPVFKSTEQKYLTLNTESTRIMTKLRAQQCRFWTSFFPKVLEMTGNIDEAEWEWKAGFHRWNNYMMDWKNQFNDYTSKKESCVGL

[6] = Antioxidant activity assessed as inhibition of AAPH-induced peroxyl radical generation measured as trolox equivalent preincubated for 15 mins followed by AAPH addition measured every min for 120 mins by ORAC-FL assay; type: functional
[7] = molecular target: Amyloid-beta precursor protein (Homo sapiens) (UniProt P05067); experiment: Inhibition of HFIP pretreated amyloid beta (1 to 42) (unknown origin) self-aggregation at 20 uM after 48 hrs by thioflavin T fluorescence assay relative to control
Chain of Amyloid-beta precursor protein (Homo sapiens) (P05067 whole entry): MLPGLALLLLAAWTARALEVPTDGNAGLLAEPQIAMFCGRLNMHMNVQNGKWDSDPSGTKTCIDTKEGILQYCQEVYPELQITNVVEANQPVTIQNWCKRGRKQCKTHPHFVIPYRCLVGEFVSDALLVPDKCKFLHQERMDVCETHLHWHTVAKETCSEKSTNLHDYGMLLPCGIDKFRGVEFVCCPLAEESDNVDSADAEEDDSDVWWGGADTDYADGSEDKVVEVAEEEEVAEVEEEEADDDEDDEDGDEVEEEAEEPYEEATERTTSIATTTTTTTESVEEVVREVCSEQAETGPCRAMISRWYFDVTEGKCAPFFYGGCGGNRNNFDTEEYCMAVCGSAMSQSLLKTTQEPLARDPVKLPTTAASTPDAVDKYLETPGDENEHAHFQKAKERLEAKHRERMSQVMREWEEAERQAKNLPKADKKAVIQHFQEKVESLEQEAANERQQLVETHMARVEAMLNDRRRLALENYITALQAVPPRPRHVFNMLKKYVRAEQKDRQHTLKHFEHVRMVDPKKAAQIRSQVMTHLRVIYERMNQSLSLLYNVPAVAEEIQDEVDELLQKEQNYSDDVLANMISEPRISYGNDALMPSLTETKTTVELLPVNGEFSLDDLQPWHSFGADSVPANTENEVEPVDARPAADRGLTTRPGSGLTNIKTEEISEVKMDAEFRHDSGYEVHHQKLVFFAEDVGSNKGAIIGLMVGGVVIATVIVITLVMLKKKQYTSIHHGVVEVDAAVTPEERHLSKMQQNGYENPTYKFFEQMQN

PC-12 [8] = experiment: Cytotoxicity against rat PC12 cells at 1.25 to 50 uM after 24 hrs by MTT assay; type: cell-based; settings: pc-12, 24 h
PC-12 [9] = experiment: Neuroprotective activity against H2O2-induced oxidative damage in rat PC12 cells assessed as increase in cell viability at 1.25 to 25 uM preincubated for 2 hrs followed by H2O2 challenge measured after 24 hrs by MTT assay; type: functional, cell-based
[10] = Effective permeability of compound at 50 ug/mL after 16 hrs by PAMPA-BBB assay
[11] = molecular target: Acetylcholinesterase (Electrophorus electricus) (UniProt O42275); experiment: Inhibition of electric eel AChE at 0.001 to 100 uM using acetylthiocholine iodide as substrate preincubated for 5 mins followed by substrate addition measured up to 180 secs by spectrophotometric analysis relative to control
Chain of Acetylcholinesterase (Electrophorus electricus) (O42275 24-633 limits assumed): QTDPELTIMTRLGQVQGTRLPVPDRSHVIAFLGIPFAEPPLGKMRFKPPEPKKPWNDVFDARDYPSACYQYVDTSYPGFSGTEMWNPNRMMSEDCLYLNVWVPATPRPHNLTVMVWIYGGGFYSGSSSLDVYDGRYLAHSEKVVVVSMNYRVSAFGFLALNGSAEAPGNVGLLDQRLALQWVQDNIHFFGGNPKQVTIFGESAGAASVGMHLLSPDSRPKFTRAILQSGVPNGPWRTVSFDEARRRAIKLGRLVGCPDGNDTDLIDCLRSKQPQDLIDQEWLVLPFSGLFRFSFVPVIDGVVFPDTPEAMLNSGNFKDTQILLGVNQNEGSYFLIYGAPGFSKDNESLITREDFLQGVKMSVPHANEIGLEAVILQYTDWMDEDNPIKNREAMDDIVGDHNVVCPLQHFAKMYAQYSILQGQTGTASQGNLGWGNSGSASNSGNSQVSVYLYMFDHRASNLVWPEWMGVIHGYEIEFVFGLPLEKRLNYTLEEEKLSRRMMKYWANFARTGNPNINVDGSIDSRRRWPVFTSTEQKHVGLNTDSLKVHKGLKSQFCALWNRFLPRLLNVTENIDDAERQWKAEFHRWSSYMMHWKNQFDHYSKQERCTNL

[12] = molecular target: Cholinesterase (Equus caballus) (UniProt P81908); experiment: Inhibition of equine serum BChE at 0.001 to 100 uM using S-butyrylthiocholine iodide as substrate preincubated for 5 mins followed by substrate addition measured up to 180 secs by spectrophotometric analysis relative to control
Chain of Cholinesterase (Equus caballus) (P81908 whole entry): as the sequence (P81908 whole entry) above

PC-12 [13] = experiment: Neuroprotective activity against H2O2-induced oxidative damage in rat PC12 cells assessed as increase in cell viability at 25 uM preincubated for 2 hrs followed by H2O2 challenge measured after 24 hrs by MTT assay; type: functional, cell-based
[14] = Inhibition of Cu2+-mediated aggregation of amyloid beta (1 to 42) (unknown origin) at 50 uM after 24 hrs by thioflavin T fluorescence assay relative to control
Acetylcholinesterase [15] = molecular target: T1, Acetylcholinesterase; experiment: Mixed-type inhibition of AChE (unknown origin) at 2.25 to 9 uM using acetylthiocholine iodide as substrate preincubated for 5 mins followed by substrate addition measured up to 180 secs by Lineweaver-Burk plot analysis
[16] = Inhibition of Cu2+-mediated aggregation of amyloid beta (1 to 42) (unknown origin) assessed as reduction in fibril formation at 50 uM after 24 hrs by transmission electron microscopic analysis
[17] = Copper-chelating activity assessed as red shift by measuring maximum absorption at 25 uM after 30 mins by UV-vis spectrophotometric method (reference value: 230 nanometer)
[18] = Copper-chelating activity assessed as minimum absorption at 25 uM after 30 mins by UV-vis spectrophotometric method (reference value: 260 nanometer)
[19] = Metal chelating activity assessed as Zn2+-compound complex formation at 25 uM after 30 mins by UV-vis spectrophotometric method
[20] = Metal chelating activity assessed as Fe3+-compound complex formation at 25 uM after 30 mins by UV-vis spectrophotometric method
[21] = Metal chelating activity assessed as Fe2+-compound complex formation at 25 uM after 30 mins by UV-vis spectrophotometric method
Mus musculus [22] = experiment: Reversal of scopolamine-induced memory impairment in Kunming mouse assessed as increase in step-down latency time at 5 to 15 mg/kg, po administered 60 mins prior to training trial followed by scopolamine challenge at 30 mins post dose measured 24 hrs after training trial by passive avoidance test; type: functional, organism-based
Mus musculus [23] = experiment: Reversal of scopolamine-induced memory impairment in Kunming mouse assessed as increase in step-down latency time at 5 mg/kg, po administered 60 mins prior to training trial followed by scopolamine challenge at 30 mins post dose measured 24 hrs after training trial by passive avoidance test; type: functional, organism-based
[24] = Metal chelating activity assessed as mole fraction of compound required to show 1:2 stoichiometry for Cu2+-compound complex at 25 uM after 30 mins by Job's plot analysis

| SMILES | IC50 (Acetylcholinesterase [1]) [µM] | IC50 (Cholinesterase [2]) [µM] | Ratio IC50 [3] | IC50 (Acetylcholinesterase [4]) [µM] | IC50 (Cholinesterase [5]) [nM] | Activity [6] [equiv] | inhibition [7] [%] | Papp at 16 h, 50 ug/mL [10] [×10⁻⁶ cm/s] | also measured |
| --- | --- | --- | --- | --- | --- | --- | --- | --- | --- |
| COc1ccc(CC(=O)Nc2ccc(CN(C)Cc3ccccc3)cc2)cc1O | 1.05 | 2.4 | 2.29 | 3.04 | 1290 | 1.5 | 42.5 | 4.37 | Activity (PC-12 [8]): Non-Toxic; Activity (PC-12 [9]): Active |
| CC(=O)[C@H]1CC[C@H]2[C@@H]3CCC4=CC(=O)CC[C@]4(C)[C@H]3CC[C@]12C [PROGESTERONE] |  |  |  |  |  |  |  | 8.62 |  |
| CCN(Cc1ccccc1)Cc1ccc(NC(=O)Cc2ccccc2)cc1 | 6.63 | 13.9 | 1.5 |  |  | 0.26 | 38.1 |  |  |
| CCN(Cc1ccccc1)Cc1ccc(NC(=O)c2ccccc2)cc1 |  | 13.9 |  |  |  | 0.32 | 37.1 |  | inhibition [11]: 33% |
| CN1C(C(=O)Nc2ccccn2)=C(O)c2ccccc2S1(=O)=O [PIROXICAM] |  |  |  |  |  |  |  | 3.29 |  |
| COc1ccc(/C=C/C(=O)Nc2ccc(CN(C)Cc3ccccc3)cc2)cc1OC | 1.94 | 3.72 | 1.9 | 2.96 | 1560 | 1.28 | 56.6 | 7.56 |  |
| CN(Cc1ccccc1)Cc1ccc(NC(=O)/C=C/c2ccc(O)cc2)cc1 | 4.85 | 9.5 | 1.95 |  |  | 2.13 | 56.6 |  |  |
| CN(Cc1ccccc1)Cc1ccc(NC(=O)CCc2ccccc2)cc1 |  | 5.29 |  |  |  | 0.3 | 35.2 |  | inhibition [11]: 45% |
| COc1ccc(/C=C/C(=O)Nc2ccc(CN(C)Cc3ccccc3)cc2)cc1 | 3.72 | 8.21 | 2.2 | 4.56 | 6400 | 1.34 | 57.8 |  |  |
| CCN(Cc1ccccc1)Cc1ccc(NC(=O)Cc2ccc(OC)c(OC)c2)cc1 | 1.55 | 3.3 | 2.13 | 3.22 | 1210 | 0.48 | 40.6 |  |  |
| CN(Cc1ccccc1)Cc1ccc(NC(=O)/C=C/c2ccc(Cl)cc2)cc1 |  |  |  |  |  | 0.82 | 58.6 |  | inhibition [11]: 41%; inhibition [12]: 32% |
| COc1cc(/C=C/C(=O)O)ccc1O |  |  |  |  |  | 2.56 |  |  |  |
| Clc1cccc(Cl)c1N=C1NCCN1 [CLONIDINE] |  |  |  |  |  |  |  | 3.1 |  |
| CN(Cc1ccccc1)Cc1ccc(NC(=O)/C=C/c2ccc([N+](=O)[O-])cc2)cc1 |  |  |  |  |  | 0.8 | 52.8 |  | inhibition [11]: 35%; inhibition [12]: 24% |
| NCCc1ccc(O)c(O)c1 [DOPAMINE] |  |  |  |  |  |  |  | 0.45 |  |
| CCN(Cc1ccccc1)Cc1ccc(NC(=O)Cc2ccc(OC)c(O)c2)cc1 | 1.89 | 3.29 | 1.76 | 2.76 | 1460 | 1.48 | 43.5 |  |  |

| SMILES | IC50 (Acetylcholinesterase [1]) [µM] | IC50 (Cholinesterase [2]) [µM] | Ratio IC50 [3] | IC50 (Acetylcholinesterase [4]) [µM] | IC50 (Cholinesterase [5]) [nM] | Activity [6] [equiv] | inhibition [7] [%] | Papp at 16 h, 50 ug/mL [10] [×10⁻⁶ cm/s] | also measured |
| --- | --- | --- | --- | --- | --- | --- | --- | --- | --- |
| CN(Cc1ccccc1)Cc1ccc(NC(=O)c2ccccc2)cc1 |  | 5.3 |  |  |  | 0.36 | 35.2 |  | inhibition [11]: 38% |
| Cc1c(C)c2c(c(C)c1O)CCC(C)(C(=O)O)O2 (stereo not drawn) |  |  |  |  |  |  |  |  | Activity (PC-12 [13]): Active |
| CCN(Cc1ccccc1)Cc1ccc(NC(=O)CCc2ccccc2)cc1 |  | 13.9 |  |  |  | 0.32 | 36.1 |  | inhibition [11]: 34% |
| CN(Cc1ccccc1)Cc1ccc(NC(=O)Cc2ccc(O)cc2)cc1 | 2.26 | 3.48 | 2.12 | 3.24 | 4320 | 1.38 | 38.5 |  |  |
| CN(Cc1ccccc1)Cc1ccc(NC(=O)Cc2ccccc2)cc1 | 3.24 | 5.28 | 1.63 | 5.8 | 4950 | 0.38 | 33.5 |  |  |
| COc1cc(/C=C/C(=O)Nc2ccc(CN(C)Cc3ccccc3)cc2)ccc1O | 3.99 | 8.78 | 2.2 | 8.32 | 5120 | 2.86 | 56.8 | 6.21 | Activity (PC-12 [8]): Non-Toxic; Activity (PC-12 [9]): Active |
| CCN(Cc1ccccc1)Cc1ccc(NC(=O)Cc2ccc(O)cc2)cc1 | 3.82 | 4.45 | 1.16 | 6.5 | 2030 | 1.35 | 42.1 |  |  |
| CCN(CC)CCCC(C)Nc1ccnc2cc(Cl)ccc12 (stereo not drawn) |  |  |  |  |  |  |  |  | inhibition [14]: 48.8% |
| CCN(Cc1ccccc1)Cc1ccc(NC(=O)Cc2ccc(O)c(O)c2)cc1 | 3.63 | 5.95 | 1.54 | 7.26 | 2400 | 3.25 | 42.1 | 4.41 | Activity (PC-12 [8]): Non-Toxic; Activity (PC-12 [9]): Active |
| COc1ccc(CC(=O)Nc2ccc(CN(C)Cc3ccccc3)cc2)cc1OC | 1.06 | 1.48 | 1.4 | 1.85 | 1050 | 0.5 | 38.5 |  |  |
| CN(Cc1ccccc1)Cc1ccc(NC(=O)/C=C/c2ccccc2)cc1 | 5.27 | 8.21 | 1.55 |  |  | 1.1 | 56.8 |  |  |
| CN(Cc1ccccc1)Cc1ccc(NC(=O)/C=C/c2ccc(O)c(O)c2)cc1 | 4.64 | 9.72 | 2.1 | 5.42 | 8010 | 4.24 | 56.2 | 5.34 | inhibition (Acetylcholinesterase [15]): Active; inhibition [14]: 87.4%; inhibition [16]: Active; Activity [17]: 245 nm; Activity [18]: 274 nm; Activity [19]: Active; Activity [20]: Active; Activity [21]: inactive; Activity (PC-12 [8]): Non-Toxic; Activity (PC-12 [9]): Active; Activity (Mus musculus [22]): Active; Activity (Mus musculus [23]): Active; Activity (mole fraction) [24]: 0.67 |
| COc1cc2cc(-c3ccc(CN(C)Cc4ccccc4)cc3)c(=O)oc2cc1OC | 0.04 | 12.4 | 315 |  |  |  |  |  |  |
| COc1ccc2[nH]cc(CCNC(C)=O)c2c1 |  |  |  |  |  |  |  |  | Activity (PC-12 [13]): Active |
| CN(Cc1ccccc1)Cc1ccc(NC(=O)Cc2ccc(O)c(O)c2)cc1 | 1.68 | 2.28 | 1.36 | 4.63 | 950 | 3.26 | 40.5 | 3.9 | Activity (PC-12 [8]): Non-Toxic; Activity (PC-12 [9]): Active |
